Target: truncated Polθ protein (Polθ-Hel containing the helicase domain (67-894)) (Homo sapiens (Human), UniProt O75417)
Assay: Polθ ATPase assay (Biological Assay 1, ADP-Glo luminescence)
Type: biochemical
Method: The Polθ ATPase assay was used to evaluate inhibitors of Polθ ATPase activity, in vitro. Experiments were performed using a truncated Polθ protein (Polθ-Hel containing the helicase domain (67-894), ATP and a DNA single strand Oligo (5′-CTGTCCTGCATGATG-3′) in the Polθ assay buffer (20 mM Tris-HCl (pH 8.8), MgCl2 5 mM, tween20 0.01%, NP40 0.01%, BSA 0.01%, DTT 1 mM). 2 μL of assay buffer containing Polθ-Hel protein (0.5 nM) and DNA substrate (500 nM) was transferred into assay ready plates, containing 0.04 μL of compounds diluted in DMSO. After a 30 minutes incubation at 23° C. in the dark, the reaction was triggered by adding 2 μL of ATP (60 μM), in assay buffer. After 60 minutes at 23° C., 4 μl of ADP-Glo™ Reagent (Glo 1) was added followed by 40 minutes of incubation, then 8 μl of ADP-Glo™ kinase Detection Reagent (Glo 2) followed by 60 minutes of incubation at 23° C. Luminescence was then measured using Tecan F200 infinite plate reader. Raw data were analysed using GeneData to generate IC50 values.
The Polθ ATPase assay described in Biological Assay 1 above was used to evaluate inhibitors of Polθ ATPase activity for the compounds described in the Experimental Part B above, in vitro.

[1] = Table A, Polθ-Hel 0.5 nM, DNA substrate 500 nM, ATP 60 μM

Chain of truncated Polθ protein (Polθ-Hel containing the helicase domain (67-894)) (O75417 67-894): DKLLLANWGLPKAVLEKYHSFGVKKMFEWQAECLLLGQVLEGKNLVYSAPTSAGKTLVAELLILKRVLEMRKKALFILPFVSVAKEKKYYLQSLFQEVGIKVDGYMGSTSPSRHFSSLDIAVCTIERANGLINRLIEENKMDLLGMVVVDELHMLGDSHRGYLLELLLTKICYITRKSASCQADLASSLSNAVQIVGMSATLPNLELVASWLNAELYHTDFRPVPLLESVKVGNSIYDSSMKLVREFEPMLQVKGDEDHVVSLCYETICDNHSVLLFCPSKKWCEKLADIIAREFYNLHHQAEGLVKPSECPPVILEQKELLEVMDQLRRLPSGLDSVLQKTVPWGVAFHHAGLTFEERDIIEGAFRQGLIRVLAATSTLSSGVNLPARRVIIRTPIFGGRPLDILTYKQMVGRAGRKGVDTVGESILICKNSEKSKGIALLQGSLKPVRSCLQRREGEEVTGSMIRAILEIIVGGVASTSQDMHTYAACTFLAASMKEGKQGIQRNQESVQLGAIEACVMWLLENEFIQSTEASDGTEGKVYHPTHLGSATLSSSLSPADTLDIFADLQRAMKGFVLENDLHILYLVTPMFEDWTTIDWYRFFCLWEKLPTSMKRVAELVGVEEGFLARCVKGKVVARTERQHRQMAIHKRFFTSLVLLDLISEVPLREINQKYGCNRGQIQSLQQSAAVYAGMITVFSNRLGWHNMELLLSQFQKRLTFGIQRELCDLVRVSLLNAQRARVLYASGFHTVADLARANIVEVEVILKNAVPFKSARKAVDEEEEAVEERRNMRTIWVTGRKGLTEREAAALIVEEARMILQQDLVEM

COc1cnc(Cl)cc1-c1cc(C)ncc1C(=O)Nc1nc2ccc(I)cc2s1 [Example 4, 2′-chloro-N-(6-iodo-1,3-benzothiazol-2-yl)-5′-methoxy-6-methyl-[4,4′-bipyridine]-3-carboxamide]
IC50 [1]: < 100 nM

COc1ccccc1-c1cnccc1C(=O)Nc1nc2ccccc2s1 [Example 15, N-(1,3-benzothiazol-2-yl)-3-(2-methoxyphenyl) pyridine-4-carboxamide]
IC50 [1]: > 1000 nM

COc1cnc(Cl)cc1-c1cc(C)ncc1C(=O)Nc1nc2cnc(N3CCC(O)CC3)cc2s1 [Example 68, 2′-chloro-N-[6-(4-hydroxypiperidin-1-yl)-[1,3]thiazolo[4,5-c]pyridin-2-yl]-5′-methoxy-6-methyl-[4,4′-bipyridine]-3-carboxamide]
IC50 [1]: < 100 nM

COc1cnc(Cl)cc1-c1cc(C)ncc1C(=O)Nc1nc2cnc(N3CC(OC)C3)cc2s1 [Example 129, 2′-chloro-5′-methoxy-N-[6-(3-methoxyazetidin-1-yl)-[1,3]thiazolo[4,5-c]pyridin-2-yl]-6-methyl-[4,4′-bipyridine]-3-carboxamide]
IC50 (Table B (Part B compounds), same assay as Biological Assay 1): < 100 nM

Reference: patent US12145945B2, “Compounds, compositions, and therapeutic uses thereof” (Breakpoint Therapeutics GmbH, priority 2023, dated 2024)
